“And” between values parts separate entries of the source, which are not always exact repeats. Equal values may be shown once. Inconclusive results and toxic doses are left out.
Test system: BDF1 mice, P388 leukemia ip, median survival T/C
Assay: NCI In Vivo Anticancer Drug Screen. Data for tumor model P388 Leukemia (intraperitoneal) in B6D2F1 (BDF1) mice
Conditions: endpoint: median survival time, higher = longer survival
Outline: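 Read-out is survival of treated animals expressed relative to the vehicle group, as a T/C ratio.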

[1] = dose: 100.0 mg/kg/injection, schedule: Q01DX009 (ip), vehicle: saline with Tween-80
[2] = dose: 200.0 mg/kg/injection, schedule: Q01DX009 (ip), vehicle: saline with Tween-80
[3] = dose: 1.0 mg/kg/injection, schedule: Q01DX009 (ip), vehicle: water
[4] = dose: 2.0 mg/kg/injection, schedule: Q01DX009 (ip), vehicle: water
[5] = dose: 3.12 mg/kg/injection, schedule: Q04DX003 (ip), vehicle: water
[6] = dose: 100.0 mg/kg/injection, schedule: Q04DX003 (ip), vehicle: saline
[7] = dose: 200.0 mg/kg/injection, schedule: Q04DX003 (ip), vehicle: saline
[8] = dose: 100.0 mg/kg/injection, schedule: Q01DX009 (ip), vehicle: Klucel (hydroxypropylcellulose) (HPC)
[9] = dose: 50.0 mg/kg/injection, schedule: Q01DX009 (ip), vehicle: saline with Tween-80
[10] = dose: 100.0 mg/kg/injection, schedule: Q04DX003 (ip), vehicle: Klucel (hydroxypropylcellulose) (HPC)
[11] = dose: 200.0 mg/kg/injection, schedule: Q04DX003 (ip), vehicle: Klucel (hydroxypropylcellulose) (HPC)
[12] = dose: 400.0 mg/kg/injection, schedule: Q04DX003 (ip), vehicle: Klucel (hydroxypropylcellulose) (HPC)

COC1/C=C/O[C@@]2(C)Oc3c(C)c(O)c4c(O)c(cc(O)c4c3C2=O)NC(=O)/C(C)=C\C=C\[C@H](C)C(O)[C@@H](C)[C@@H](O)[C@@H](C)[C@H](OC(C)=O)[C@@H]1C (some centres not stated)
T/C (dose: 100.0 mg/kg/injection, schedule: Q01DX009 (ip), vehicle: saline): 123 % of control | T/C (dose: 200.0 mg/kg/injection, schedule: Q01DX009 (ip), vehicle: saline): 114 % of control | T/C (dose: 400.0 mg/kg/injection, schedule: Q01DX009 (ip), vehicle: saline): 119 % of control

O=[N+]([O-])c1ccc(N2CCCCC2)c2c1no[n+]2[O-]
T/C (dose: 15.0 mg/kg/injection, schedule: Q01DX009 (ip), vehicle: saline with Tween-80): 88 % of control | T/C (dose: 30.0 mg/kg/injection, schedule: Q01DX009 (ip), vehicle: saline with Tween-80): 93 % of control | T/C (dose: 60.0 mg/kg/injection, schedule: Q01DX009 (ip), vehicle: saline with Tween-80): 95 % of control

CC(C)(N)CCC(C)(C)NCCCN
T/C (dose: 50.0 mg/kg/injection, schedule: Q01DX009 (ip), vehicle: water): 92 % of control | T/C (dose: 100.0 mg/kg/injection, schedule: Q01DX009 (ip), vehicle: water): 103 % of control | T/C (dose: 100.0 mg/kg/injection, schedule: Q04DX003 (ip), vehicle: water): 100 % of control | T/C (dose: 200.0 mg/kg/injection, schedule: Q01DX009 (ip), vehicle: water): 106 % of control | T/C (dose: 200.0 mg/kg/injection, schedule: Q04DX003 (ip), vehicle: water): 103 % of control | T/C (dose: 400.0 mg/kg/injection, schedule: Q04DX003 (ip), vehicle: water): 92 % of control

CC(C)c1cc(C(C)C)nc(NNc2nc(C(C)C)cc(C(C)C)n2)n1
T/C [1]: 90 % of control | T/C [2]: 90 % of control | T/C (dose: 400.0 mg/kg/injection, schedule: Q01DX009 (ip), vehicle: saline with Tween-80): 100 % of control

CCSc1ncc2cnccn12
T/C (dose: 0.37 mg/kg/injection, schedule: Q01DX009 (ip), vehicle: water): 108 % of control | T/C (dose: 0.75 mg/kg/injection, schedule: Q01DX009 (ip), vehicle: water): 111 % of control and 112 % of control | T/C [3]: 102 % of control | T/C (dose: 1.5 mg/kg/injection, schedule: Q01DX009 (ip), vehicle: water): 112 % of control and 117 % of control and 120 % of control | T/C [4]: 94 % of control and 105 % of control | T/C [5]: 100 % of control | T/C (dose: 4.0 mg/kg/injection, schedule: Q01DX009 (ip), vehicle: water): 94 % of control and 100 % of control | T/C (dose: 5.0 mg/kg/injection, schedule: Q01DX009 (ip), vehicle: water): 91 % of control | T/C (dose: 6.0 mg/kg/injection, schedule: Q01DX009 (ip), vehicle: water): 88 % of control and 104 % of control | T/C (dose: 6.25 mg/kg/injection, schedule: Q04DX003 (ip), vehicle: water): 100 % of control | T/C (dose: 12.5 mg/kg/injection, schedule: Q04DX003 (ip), vehicle: water): 102 % of control | T/C (dose: 16.0 mg/kg/injection, schedule: Q01DX009 (ip), vehicle: water): 89 % of control

O=Cc1c[nH]c(=O)[nH]c1=O
T/C [6]: 91 % of control | T/C [7]: 99 % of control | T/C (dose: 400.0 mg/kg/injection, schedule: Q04DX003 (ip), vehicle: saline): 88 % of control

Cc1ccc(S(=O)(=O)N/N=C/C(Br)=C(/Br)C(=O)O)cc1
T/C (dose: 6.25 mg/kg/injection, schedule: Q01DX009 (ip), vehicle: Klucel (hydroxypropylcellulose) (HPC)): 119 % of control | T/C (dose: 12.5 mg/kg/injection, schedule: Q01DX009 (ip), vehicle: Klucel (hydroxypropylcellulose) (HPC)): 124 % of control | T/C (dose: 50.0 mg/kg/injection, schedule: Q01DX009 (ip), vehicle: Klucel (hydroxypropylcellulose) (HPC)): 155 % of control | T/C [8]: 153 % of control

COc1cc(O)c2c(c1)C(=O)c1cc(C)cc(O)c1C2=O
T/C (dose: 2.5 mg/kg/injection, schedule: Q01DX009 (ip), vehicle: saline with Tween-80): 100 % of control | T/C (dose: 5.0 mg/kg/injection, schedule: Q01DX009 (ip), vehicle: saline with Tween-80): 100 % of control | T/C (dose: 10.0 mg/kg/injection, schedule: Q01DX009 (ip), vehicle: saline with Tween-80): 95 % of control | T/C (dose: 20.0 mg/kg/injection, schedule: Q01DX009 (ip), vehicle: saline with Tween-80): 100 % of control

O=C(c1ccccc1)N1CC=Cc2ccccc21
T/C [9]: 105 % of control | T/C [1]: 100 % of control | T/C [2]: 105 % of control

Cn1c(/N=C(/N)N=C(N)N)cc(=O)n(C)c1=O
T/C (dose: 50.0 mg/kg/injection, schedule: Q04DX003 (ip), vehicle: saline): 104 % of control | T/C [6]: 100 % of control | T/C [7]: 95 % of control

S=C1CCNCC1
T/C (dose: 12.5 mg/kg/injection, schedule: Q01DX009 (ip), vehicle: saline): 95 % of control | T/C (dose: 25.0 mg/kg/injection, schedule: Q01DX009 (ip), vehicle: saline): 86 % of control | T/C (dose: 50.0 mg/kg/injection, schedule: Q01DX009 (ip), vehicle: saline): 100 % of control

CCN1C(=O)Nc2ccc(Cl)cc2C1(O)c1ccccc1 (configuration not stated)
T/C [9]: 97 % of control | T/C [2]: 97 % of control

O=C(NCCBr)Nc1cccc2c1Cc1ccccc1-2
T/C [10]: 100 % of control | T/C [11]: 100 % of control | T/C [12]: 95 % of control

c1ccc(C[n+]2ccc(-c3cc[n+](Cc4ccccc4)cc3)cc2)cc1
T/C (dose: 1.25 mg/kg/injection, schedule: Q01DX010 (ip), vehicle: saline): 86 % of control | T/C (dose: 156.0 micrograms/kg/injection, schedule: Q01DX010 (ip), vehicle: saline): 104 % of control | T/C (dose: 313.0 micrograms/kg/injection, schedule: Q01DX010 (ip), vehicle: saline): 104 % of control | T/C (dose: 625.0 micrograms/kg/injection, schedule: Q01DX010 (ip), vehicle: saline): 104 % of control

CC[N+](CC)(CC)CCCCCCCC[N+](CC)(CC)CC
T/C (dose: 0.25 mg/kg/injection, schedule: Q01DX009 (ip), vehicle: water): 115 % of control | T/C (dose: 0.5 mg/kg/injection, schedule: Q01DX009 (ip), vehicle: water): 92 % of control | T/C (dose: 0.5 mg/kg/injection, schedule: Q04DX003 (ip), vehicle: water): 100 % of control | T/C (dose: 0.78 mg/kg/injection, schedule: Q04DX003 (ip), vehicle: water): 112 % of control | T/C [3]: 105 % of control and 106 % of control | T/C (dose: 1.0 mg/kg/injection, schedule: Q04DX003 (ip), vehicle: water): 88 % of control | T/C (dose: 1.56 mg/kg/injection, schedule: Q04DX003 (ip), vehicle: water): 112 % of control | T/C [4]: 106 % of control | T/C [5]: 112 % of control

CCOC(=O)C(Cc1ccc(N(CCCl)CCCl)cc1)NC(=O)CNC(C)=O (configuration not stated)
T/C (dose: 12.5 mg/kg/injection, schedule: Q04DX003 (ip), vehicle: saline with Tween-80): 177 % of control | T/C (dose: 25.0 mg/kg/injection, schedule: Q04DX003 (ip), vehicle: saline with Tween-80): 200 % of control | T/C (dose: 33.0 mg/kg/injection, schedule: Q04DX003 (ip), vehicle: saline with Tween-80): 280 % of control and 218 % of control | T/C (dose: 50.0 mg/kg/injection, schedule: Q04DX003 (ip), vehicle: saline with Tween-80): 259 % of control and 272 % of control and 170 % of control | T/C (dose: 75.0 mg/kg/injection, schedule: Q04DX003 (ip), vehicle: saline with Tween-80): 204 % of control

Cc1ccc([N+](=O)[O-])cc1NC(=O)Nc1ccc(S(N)(=O)=O)cc1
T/C [8]: 100 % of control | T/C (dose: 200.0 mg/kg/injection, schedule: Q01DX009 (ip), vehicle: Klucel (hydroxypropylcellulose) (HPC)): 100 % of control | T/C (dose: 400.0 mg/kg/injection, schedule: Q01DX009 (ip), vehicle: Klucel (hydroxypropylcellulose) (HPC)): 100 % of control

O=c1oc2cc(O)ccc2c2c1CCCC2
T/C [10]: 95 % of control | T/C [11]: 95 % of control | T/C [12]: 100 % of control

CC#CC#C/C=C1\OC2(CCCCO2)C(O)C1OC(=O)CC(C)C (configuration not stated)
T/C (dose: 10.0 mg/kg/injection, schedule: Q01DX009 (ip), vehicle: Klucel (hydroxypropylcellulose) (HPC)): 100 % of control | T/C (dose: 20.0 mg/kg/injection, schedule: Q01DX009 (ip), vehicle: Klucel (hydroxypropylcellulose) (HPC)): 102 % of control | T/C (dose: 40.0 mg/kg/injection, schedule: Q01DX009 (ip), vehicle: Klucel (hydroxypropylcellulose) (HPC)): 111 % of control

COC(=O)c1ccc([N+](=O)[O-])c(OC)c1
T/C (dose: 75.0 mg/kg/injection, schedule: Q04DX003 (ip), vehicle: saline): 100 % of control | T/C (dose: 150.0 mg/kg/injection, schedule: Q04DX003 (ip), vehicle: saline): 100 % of control | T/C (dose: 300.0 mg/kg/injection, schedule: Q04DX003 (ip), vehicle: saline): 104 % of control

From PubChem BioAssay AID328 (DTP/NCI, 2004)
